Structures are written as SMILES.

The text below walks through data of patent US20150141386A1, “USE OF VITAMIN K TO DECREASE ALLOGRAFT FAILURE AND PATIENT MORTALITY AFTER ORGAN TRANSPLANTATION” (VITAK B.V., priority 2012, published 2015).

In one data set the test system is Matrix Gla-Protein (MGP). Nature of the data set: Circulating desphospho-uncarboxylated MGP (dp-ucMGP) / MGP carboxylation in vitamin K intervention studies. It is filed as in vivo, human. Conditions: for circulating dp-ucMGP at start: baseline. On the procedure:
(§1) Blood was drawn after an 8-12 h overnight fasting period to prepare serum and citrated plasma, which were subsampled and frozen at −80° C. until use. Renal allograft function was assessed as the 24 h urinary creatinine clearance (CrCl), i.e. the 24 h urinary creatinine excretion divided by the serum creatinine concentration. Vitamin K status was assessed from plasma dp-ucMGP concentrations as described elsewhere {Cranenburg EC et al. Thromb. Haemostas. 104 (2010) 811-822} and from ucOC using a commercial dual antibody ELISA test kit (Takara Shuzo Co. Ltd., Otsu, Shiga, Japan). An in-house control serum pool was run on all ELISA plates. The primary end-points of this study were death-censored graft failure and change in kidney function. Death-censored graft failure was defined as return to dialysis therapy or re-transplant. Change in kidney function was defined as estimated GFR (eGFR) at baseline subtracted by eGFR at the last follow-up visit, divided by time from baseline to follow-up and expressed in millilitres per minute per 1.73 m^2 per year. […] Calculating a slope instead of a change in eGFR therefore will underestimate a patient's true kidney function decrease. For patients who died with a functioning graft (n=78), eGFR at follow-up was defined as kidney function at the last visit to the outpatient clinic before death, and for patients with graft failure (n=42), eGFR at follow-up was defined as the eGFR at the last visit to the outpatient clinic before starting dialysis therapy or re-transplant. There was no loss to follow-up.
(§2) Recommended doses of vitamin K for treating transplant patients. […] On top of this, chronic kidney disease (CKD) patients are known to have much more pronounced vitamin K insufficiency than healthy subjects {Schlieper G et al. J. Am. Soc. Nephrol., 22 (2011) 387-395}. Therefore, the estimated range for optimal effect is dependent on the disease state and may be higher than estimated from literature data. […] This was shown in archived samples from a vitamin K1-intervention study initially described in 2003 {Braam L A et al. Am. J. Sports Med. 31 (2003) 889-895}. […] This was shown in archived samples from a vitamin K1-intervention study initially described in 2003 {Braam L A et al. Calcif. Tissue Int. 73 (2003) 21-26}. During the first 6 months of the study, circulating ucOC in the vitamin K-treated group decreased from 4.2 ng/mL to 0.8 ng/mL, whereas in the control samples a non-significant increase was observed from 4.4 ng/mL to 4.7 ng/mL. […] 109 (2007) 3279-3283}.
(§3) the optimal dose for Gla-protein carboxylation in subjects free from CKD lies between 5 and 2,000 μg/day, preferably between 50 and 1,000 μg/day, more preferably between 100 and 1,000 μg/day and most preferably between 200 and 500 μg/day for subjects with baseline levels in the normal range. […] The decreases of circulating dp-ucMGP and ucOC are shown in FIG. 10. • Lower doses were tested in a number of small studies with a significant effect at 200 μg/day and a half-maximum effect at 500 μg/day.

The subject of a further data set is circulating OC and MGP. The data set can be described thus: Gla-protein carboxylation (circulating OC and MGP) after vitamin K supplementation. Type of data set: in vivo, human.
Text: as §2, §3
the optimal dose for Gla-protein carboxylation in subjects free from kidney disease lies between 5 and 3,000 μg/day, preferably between 50 and 2,000 μg/day, more preferably between 100 and 1,000 μg/day and most preferably between 200 and 500 μg/day for subjects with baseline levels in the normal range. […] Treatment should be guided by the circulating levels of dp-ucMGP, ucOC, or uncarboxylated species of any other suitable Gla-protein. • MK-n: The long-chain menaquinones are selected from the group menaquinone-7, menaquinone-8, menaquinone-9, and menaquinone-10. The long half-life times of the long-chain menaquinones make that the optimal dose for Gla-protein carboxylation is lower than for vitamin K1 {Schurgers L J et al. Biochim. Biophys. Acta 1570 (2002) 27-32}. […] A clear dose-dependent increase of MGP carboxylation was found, for instance, between 45 μg/day and 360 μg/day {Westenfeld R et al. Am. J. Kidney Dis. 59 (2012) 186-195}.

Data set [1] deals with osteocalcin (OC). The note with it: cited from earlier work.
The conditions of data set [2]: in vivo; cited from earlier work.
In data set [3] the test system is osteocalcin (OC). The data set can be described thus: Circulating uncarboxylated osteocalcin (ucOC) / OC carboxylation in vitamin K intervention studies. It is filed as in vivo, human. The method, then:
as §1
as §2, with “3279-3283}. […]” for “3279-3283}.”

For the compound `CC(C)=CCC/C(C)=C/CC/C(C)=C/CC/C(C)=C/CC1=C(C)C(=O)c2ccccc2C1=O` [MK-4, menaquinone-4], in the data set on Matrix Gla-Protein (MGP) (MK-4 45,000 μg/day (FIG. 9)), the “circulating dp-ucMGP change” value is “decrease”. In the data set with circulating OC and MGP (lower doses, small studies), the “dose with half-maximum effect on Gla-protein carboxylation” value is 500 µg/day and the “dose with significant effect on Gla-protein carboxylation” value was 200 µg/day. The “carboxylation of circulating OC” value in the data set on osteocalcin (OC) [1] (MK-4 45,000 μg/day taken for 6 months) is listed as “complete carboxylation”. In addition, the circulating half-life time in data set [2] is listed as 1 h.

As for `CC1=C(C/C=C(\C)CCC[C@H](C)CCC[C@H](C)CCCC(C)C)C(=O)c2ccccc2C1=O` [K1, phylloquinone], the “circulating dp-ucMGP after treatment” value with Matrix Gla-Protein (MGP) (K1 1,000 μg/day (FIG. 8)) was 112 pM; in the data set on Matrix Gla-Protein (MGP) (K1 10,000 μg/day (FIG. 7)) it was 23 pM. For the same compound, the entries for the “circulating dp-ucMGP at start” value in the data set on Matrix Gla-Protein (MGP) (K1 1,000 μg/day group) and in the data set on Matrix Gla-Protein (MGP) (K1 10,000 μg/day group) were 389 pM and 182 pM, respectively. Also, in the data set with circulating OC and MGP (K1 1,000 μg/day, healthy volunteers), the “OC and MGP carboxylation” value was “substantial increase”. In the data set with circulating OC and MGP (K1 10,000 μg/day, archived samples of vitamin K1-intervention study), the “carboxylation of circulating OC and MGP” value is reported as “more than 95%”. Further, in the data set on osteocalcin (OC) [3] (K1 1,000 μg/day group, baseline), the “circulating ucOC at start” value is listed as 4.2 ng/mL. In addition, the “circulating ucOC after treatment” value in the data set with osteocalcin (OC) [3] (K1 1,000 μg/day, first 6 months of the study) is 0.8 ng/mL. Also, the “circulating ucOC level at start” value in the data set with osteocalcin (OC) [3] (K1 10,000 μg/day group, baseline of 2-year study) is given as 4.6 ng/mL. For the same compound, the “circulating ucOC level after treatment” value with osteocalcin (OC) [3] (K1 10,000 μg/day, first 6 months of 2-year study, background = buffer values) is reported as “not different from background”. The “effect on the carboxylation degree of circulating OC” value in the data set with osteocalcin (OC) [1] (K1 140 μg/day) was “less pronounced but statistically significant effect”. The circulating half-life time entry in data set [2] is recorded as “around 1.5 h”.
